Results taken from US20230348394A1, “COMPOSITIONS AND METHODS FOR TREATING MUSCULAR DYSTROPHIES” (The Regents of the University of California, priority 2020, published 2023).

Key:
[1] = system: alpha-dystroglycan (α-DG); experiment: Immunoblot of total protein lysates, C2C12 myotubes; assay type: cell-based, murine; conditions: 5 μM, 48 hours
Experimental: (§1) Myotubes treated for 48 hrs were lysed using RIPA buffer (Thermo Fisher Scientific) containing Halt Protease Inhibitor Cocktail (Thermo Fisher Scientific). Cell lysates in RIPA buffer were rocked for 1 hr at 4° C. and centrifuged at 1,000 RPM for 30 mins at 4° C. The supernatant was collected, quantified for protein concentration using the DC protein assay (Bio-Rad), and normalized to 2 mg/ml in water and Laemmli sample buffer with a final concentration of 10% glycerol (Sigma-Aldrich), 5% beta-mercaptoethanol (Sigma-Aldrich), 3% sodium dodecyl sulfate (Sigma-Aldrich), and 0.05% bromophenol blue (Sigma-Aldrich). For SDS-PAGE, samples were heated to 95° C. for 2 mins before loading 40 μg onto 4-12% tris-glycine or bis-tris polyacrylamide gels (Novex), electrophoresed for 2 hrs at 100 volts at RT, and transferred to a nitrocellulose membrane for 2 hrs at 100 volts at 4° C. Ponceau S staining was performed to visualize protein loading and verify protein transfer. […] Autoradiography films were developed using a SRX-101A tabletop processor (Konica Minolta), scanned to a digital file, and analyzed by densitometry of bands using ImageJ version 1.51 s. […]

[2] = Half-life analysis in CD-1 mouse plasma; assay type: in vitro ADME, CD-1 mice; conditions: 37° C.
Experimental: (§2) Half-life analysis was performed by Eurofins Panlabs Inc. using 1 μM of compound with a final DMSO concentration of 0.5%. PBS or plasma from CD-1 mice was pre-warmed to 37° C. for 5 mins before addition of the test compounds and continued incubation at 37° C. At 0, 30, 60, 120, 240, and 1440 mins an aliquot of solution containing compounds was mixed with acetonitrile/methanol, mixed, and centrifuged. The supernatants were used for HPLC-MS/MS analysis.

[3] = system: membrane-associated utrophin; experiment: Cell surface protein biotinylation and utrophin immunoblot, mdx myotubes; assay type: cell-based, murine; conditions: 5 μM, 48 hours
Experimental: as §1

[4] = Half-life analysis in PBS pH 7.4; assay type: physicochemical; conditions: PBS pH 7.4, 37° C.
Experimental: as §2

CCN(CC)c1ccc2cc(C(=O)Nc3ccc(C(=O)N4CCCCCC4)cc3)c(=O)oc2c1 [OT-9]
increase of core α-DG in total protein lysates [1]: 1.5 fold | levels of glycosylated α-DG in total protein lysates [1]: did not increase levels of glycosylated α-DG | half-life at 1 μM [2]: 7.7 h | increase in membrane-associated utrophin protein [3]: 1.6 fold | half-life at 1 μM [4]: 0.817 h
